Assay [1] has as its system S. aureus ATCC 10390. Put plainly: Agar overlay TTC assay. It counts as cell-based, Staphylococcus aureus. The settings on record: macroarray copies, 15 mL agar. The source says:
To take advantage of the spatially-addressed nature of the macroarray format, an agar overlay assay was employed that utilizes TTC (triphenyl tetrazolium chloride) as a visualization agent (FIG. 2[…].; Lu, A. T.; Solas, D. W.; Gore, […].; Coffin, […].; Wang, […].; Look, G. C.; Campbell, […]. Antimicrob. Agents Chemother. 1998, 1447-1453. Unfortunately, during macroarray synthesis the planarity of the support is not fully maintained, and small wrinkles develop in this particular assay. This problem was solved by using an adaptation of the common Western Blot technique to copy the macroarray members from the support to fresh wrinkle-free sheets while maintaining the spatially-addressed nature. This transfer can be completed in 90 seconds and four copies can be made at a time, however to date, it is applicable only for smaller macroarrays (6 cm×6 cm, 16 spots). The full macroarray was easily divided into these dimensions. The copies allowed for replicates to be made, and the original, which cannot be used in the assay, is used to validate the compounds by LCMS. As an added feature, the sensitivity of the assay was tuned by simply changing the amount of agar applied to the array. The copies generated in the assay can also be easily used to screened against multiple organisms. […] This assay format also took advantage of the spatially addressed nature of the arrays (FIG. 2C). […]

Assay [2] relates to S. aureus ATCC 10390. Put plainly: Estimated MIC, solution-phase microdilution absorbance assay with crude macroarray spot stock solutions. In kind it is cell-based, Staphylococcus aureus. The settings on record: for MIC: Staphylococcus aureus, ATCC10390, 12 h. Here is the method: Spots from a new 69 member chalcone macroarray as well as the three heterocyclic macroarrays prepared earlier were punched out, cleaved, and eluted with acetonitrile. The resulting solutions were concentrated to a residue that was taken up in DMSO to form 2 mM stock solutions.
From the stock solutions, microdilution assays in a 96 well plate starting at 50 μM were performed in quadruplicate. Each well contained 5 μL of the stock solution as well as 195 μL of a S. aureus culture. The turbidity of each well was measured after incubating 12 hours using a standard plate reader. Active compounds can be further diluted and the assay repeated.
To acquire more quantitative antibacterial activity data about our compounds and verify our on-support assay results, we performed solution-phase absorbance assays that provided estimates of the minimum inhibitory concentration (MIC) of each macroarray member against S. aureus. Stock solutions (ca. 2 mM) were generated by cleaving and eluting 198 individual compounds from chalcone (3) and heterocyclic macroarrays (5, 7, and 8). […] The good overall purities of the crude macroarray compounds allowed for reasonable estimations of MICs.
For estimated MIC determination, DMSO was added to the dried compound residue obtained from a single spot to afford ca. 100 μL of a 2 mM stock solution. Aliquots (5 μL) of these solutions were added to a 96-well plate, followed by 195 μL of diluted S. aureus 10390 (10^6 CFUs/mL) to yield ca. 50 μM final concentrations. The plates were swirled for 1 h to ensure compound dissolution, incubated for 12 h at 37° C., and the absorbance at 595 nm was recorded using a plate reader. […] Actual MIC values were determined for lead compounds resynthesized in solution using an analogous procedure with solutions of known concentration (see).
Preparation of spot samples and controls. An aliquot of DMSO (ca. 100 μL depending on the loading of the parent hydroxyacetophenone) was added to the dried compound residue obtained after TFA cleavage and elution from a single spot. This afforded a 2.0 mM “spot stock” solution for each spot. A small aliquot of each “spot stock” solution was saved for subsequent LC-MS analysis.
For estimated MIC screens, 5.0 μL portions of the “spot stock” solutions were added to the appropriate wells in a sterile, polystyrene 96-well plate to yield ca. 50 μM solutions (dependent on the initial loading of hydroxyacetopheneone and compound purity). To the positive and negative control wells, 5.0 μL of DMSO were added (positive controls contained bacteria but no compound, while negative controls had neither compound nor bacteria). All estimated MIC assays were performed in quadruplicate. Note: the MIC value is defined as the lowest concentration where no bacterial growth occurs.
Representative estimated MIC assay procedure. This assay procedure is based in part on the method reported by Strøm et al.^xiii A 400 μL portion of overnight S. aureus 10390 culture was diluted with 100 mL of sterile LB broth to give ca. 10^6 CFUs per mL. Aliquots (195 μL) of this solution were added to all of the wells in a sterile 96-well plate (except for the negative control wells; 195 μL of sterile LB broth were added to these wells). The plates were placed on an orbital shaker table and gently swirled for 1 h to ensure compound dissolution, and then incubated (without shaking) for 12 h at 37° C. The absorbance at 595 nm was recorded using a plate reader.
The original “spot stock” solutions of these compounds were diluted with DMSO to give ca. 25 and 13 μM final concentrations and tested for inhibitory activities using the procedure described above.

SMILES strings stand for the structures. Values after ≈ are worked out from the molar mass of the structure shown. Where two headings read alike, the source gives them in different places. Some results are limits rather than exact numbers.

For `O=C(/C=C/c1cc(C(F)(F)F)cc(C(F)(F)F)c1)c1cccc(O)c1` [Compound 4Bv, 3′-hydroxy-3,5-bis(trifluoromethyl)chalcone], in the assay with S. aureus ATCC 10390 [1], the “relative activity in agar overlay TTC assay” value is on record as “most active”. Moreover, the “inhibition of S. aureus at the 12.5 μM level” value with S. aureus ATCC 10390 [2] (12.5 μM, macroarray stock solutions diluted four fold) is listed as “complete inhibition”. In addition, the minimal inhibitory concentration (MIC) (as a rule, the smallest concentration in the dilution series that meets the test's criterion for growth inhibition) is 6.25 to 12.5 µM (≈ 2.25 to 4.5 µg/mL) in the assay on S. aureus ATCC 10390 [2] (Table 2, serial dilution of stock solutions obtained by SPOT-synthesis, read-out: estimated MIC range) and below 12.5 µM with S. aureus ATCC 10390 [2] (Table 3, serial dilution of spot stock solutions of crude macroarray compounds, read-out: S. aureus Estimated MIC range).

(Values after patent publication US8227616B2, “Cyanopyridine antibacterial agents and methods of use thereof” (Wisconsin Alumni Research Foundation, priority 2006, dated 2012).)
